This passage reports RP-LC retention time results from the METLIN SMRT retention time set (Domingo-Almenara et al. 2019).

A short description of this series: gradient 5% acetonitrile 3 min, to 50% in 2 min, to 85% in 15 min, held 3 min, 100 µL/min. The note with it: column: Zorbax Extend-C18 2.1 x 50 mm; eluents: water / acetonitrile, 0.1% formic acid. Summed up: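 Retention time was recorded from adduct peaks, which were picked computationally and each inspected manually. Pure standards ran in mixtures of ~100 molecules on HPLC coupled to a quadrupole time-of-flight mass spectrometer, in positive and negative ionization mode, through a Zorbax Extend-C18 column (2.1 × 50 mm, 1.8 μm) at 100 μL/min. Eluents were water and acetonitrile, each with 0.1% formic acid.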
`O=C(O)c1cccc2c1CCN2C(=O)c1ccc(F)cc1` displayed an RP-LC retention time of 761 s. For the compound `CCOC(=O)c1ccc(NC(=O)Cn2cnc3nc(N4CCCC4)ncc3c2=O)cc1`, the RP-LC retention time turned out to be 753 s.

Regarding `COC(=O)N(C)c1c(N)nc(-c2nn(Cc3ccccc3F)c3ncccc23)nc1N`, the RP-LC retention time turned out to be 729 s.

Consider `CC(C)OCCCN(CC(=O)N1CCNCC1)C(=O)c1ccc(C(F)(F)F)cc1`, for which the RP-LC retention time was determined as 653 s.

Regarding `O=C(Cn1nc2nc(Nc3ccc(F)cc3)ccn2c1=O)NCc1ccc(F)cc1Cl`, the RP-LC retention time is 753 s.

The compound `CCOc1ccc(NC(=O)c2cc(C)n3nc(C)cc3n2)cc1` displayed an RP-LC retention time of 976 s.

For the compound `CCCN1CCN(c2cc(C(=O)O)c3cc(NS(=O)(=O)c4cc(F)ccc4C)ccc3n2)CC1`, the RP-LC retention time stood at 627 s. The same measure for `CCn1cnc(S(=O)(=O)N2CCCC(C(=O)NCCN3CCCCCC3)C2)c1` (stereo not given): 583 s; for `CC(C)N1C(=O)c2cccnc2Sc2cc(NC(=O)Cc3ccc(Cl)cc3)ccc21`: 954 s; for `OCC(O)C1OCOC(C(O)CO)C1O` (stereo not given): 719 s. The same measure for `COc1ccc(N2CCN(c3ncc(C(=O)O)c(C(C)C)n3)CC2)cc1`: 865 s; for `Cc1sc(-c2noc(C3CCC3)n2)cc1NC(=O)c1ccc(C(F)(F)F)cc1`: 1150 s; for `CCN1CCN(CCNC(=O)C2CCCN(C(=O)c3[nH]c(C)c(C(=O)OC)c3C)C2)CC1` (stereo not given): 565 s. The same measure for `Cc1cccc(OCc2nc(-c3ccc(NS(=O)(=O)c4cccs4)cc3)no2)c1`: 1090 s. For the compound `CCCC1=C(C(=O)OCC)C(c2ccccc2OC)NC(=O)N1` (stereo not given), the RP-LC retention time stood at 797 s. The same measure for `O=C(c1ccc(CN2C(=O)CSc3ncccc32)cc1)N1CCN(c2ccccn2)CC1`: 710 s; for `COc1ccc(C2Cn3nnc(-c4nc(C)no4)c3CO2)cc1` (stereo not given): 833 s. The same measure for `CNC(=O)c1cc2cc(Cl)ccc2[nH]1`: 741 s; for `Cc1cc2nc(C(F)(F)F)c(=O)n(C(C)C(=O)N3CCN(c4ccccn4)CC3)c2cc1C` (stereo not given): 796 s. Then `Cc1cc2[nH]c(C(=O)Nc3ccc(Cl)cc3Cl)c(CN3CCOCC3)c2s1`, with 759 s; and `CCOc1ccc2nc(SCC(=O)Nc3nccs3)[nH]c2c1`, with 622 s.

In turn, `CCn1c(=O)c(C)nc2cc(-c3noc(-c4cccc(Cl)c4)n3)ccc21` registered an RP-LC retention time of 1220 s. The same measure for `CSc1ccc(Cl)c(-c2nc(-c3cccc(-c4ccnn4C)c3)no2)c1`: 1300 s; for `Cc1csc(-c2cc(S(=O)(=O)NCCCN3CCc4ccccc4C3)c(C)s2)n1`: 708 s.

For `c1ccc(C(NCCNC(c2ccccc2)c2ccccc2)c2ccccc2)cc1`, the RP-LC retention time was 849 s.

The compound `CCN1C(=O)c2cccnc2Sc2cc(CNC(=O)c3ccc(C#N)cc3F)ccc21` returned an RP-LC retention time of 760 s. The same measure for `COC(=O)c1ccccc1NC(=O)C12CCC(C1)C(C)(C)C2=O` (stereo not given): 951 s; for `O=C(CCCn1c(=O)c2cccn2c2ccc(F)cc21)N1CCN(c2ccccn2)CC1`: 635 s.

The compound `Cc1ccc(S(=O)(=O)CC(=O)Nc2nc(-c3cccc([N+](=O)[O-])c3)cs2)cc1` yielded an RP-LC retention time of 993 s. The same measure for `CCNc1nc(C)cc(N2CCN(S(=O)(=O)c3ccc(OC)c(C)c3C)CC2)n1`: 764 s; for `CCn1cc(C)c(C(=O)O)c1CC(=O)N(C)Cc1ccccc1`: 772 s; for `COc1ccc(-c2cc(C(=O)N(C)C3CCCCC3)nn2C2CCS(=O)(=O)C2)cc1` (stereo not given): 924 s. Regarding `CCOc1ccc(C(=O)N2CCCCC2c2nncn2C)cc1OCC` (stereo not given), the RP-LC retention time turned out to be 646 s. As to `CCCCN(C)C(=O)Cn1nc(C)c2c(C)n(-c3ccccc3)nc2c1=O`, the RP-LC retention time was 787 s. Then `O=C(Nc1ccccc1F)N1CCC2(CCC2N2CCOCC2)CC1` (stereo not given), with 554 s. The same measure for `COc1ccc(-n2c(=O)n(C)c(=O)c3cc(C(=O)Nc4cc(F)cc(F)c4)cnc32)cc1`: 970 s; for `CCc1cccc(NC(=O)Cn2nc3cc(C)nc(Nc4ccc(F)c(C)c4)n3c2=O)c1`: 1190 s. Compound `Cc1ccc(Nc2nc(-c3ccc(F)cc3F)cs2)nc1` registered an RP-LC retention time of 1070 s.

For the compound `CCC(c1cccs1)N1C(=O)[C@H]2CN(S(=O)(=O)c3ccccc3Cl)C[C@H]2C1=O` (stereo not given in full), the RP-LC retention time was 1000 s.

Consider `CCOC(=O)Cc1ccc(NC(=O)NC2CCN(c3ccc(C)cc3)C2=O)cc1` (stereo not given), for which the RP-LC retention time was 784 s. `Cc1ccccc1Nc1c(-c2ccc(Cl)cc2)nc2ccccn12` yielded an RP-LC retention time of 804 s. Then `CCCCOc1ccc(CNC(=O)C2CCN(Cc3cn(CC)c4ccc(OC)cc34)CC2)cc1`, with 842 s; and `COc1ccc(NC(C)=O)cc1NS(=O)(=O)C1CC1`, with 607 s; and `Cc1nn(CC(=O)NCCCN(C)C)c(=O)c2nc(-c3ccccc3)sc12`, with 604 s.

As for `CCCNC(=O)C1CCN(c2ccc(SCC(=O)Nc3ccc(N(CC)CC)cc3C)nn2)CC1`, the RP-LC retention time came out at 576 s. Then `O=C(NCc1ccccc1C(F)(F)F)c1ccnc(N2CCCCC2)n1`, with 1190 s; and `COCCn1nc2n(c1=O)CCC1(CC2)CCN(C(=O)C2CCCO2)CC1` (stereo not given), with 600 s. The same measure for `Cc1ncc([N+](=O)[O-])n1CC(C)O` (stereo not given): 609 s. The same measure for `CCN(Cc1ccc(OC)cc1)Cc1cc(=O)c2cc(F)ccc2[nH]1`: 613 s. The compound `CC(C)(C)CC(=O)N1CCCC(c2nc(CNC(=O)C3CCC3)cs2)C1` (stereo not given) came in with an RP-LC retention time of 774 s. The same measure for `CC(C)c1ccc(N2C(=O)C3N=NN(Cc4nc(-c5cccc(C(F)(F)F)c5)no4)C3C2=O)cc1` (stereo not given): 1260 s; for `CC1=C(c2ccccc2)S(=O)(=O)N=C1N1CCCN(C(=O)NCc2ccccc2)CC1`: 843 s.

Turning to `Cc1ccccc1-c1noc(-c2nnn3c2COC(c2ccc(F)cc2)C3)n1` (stereo not given), the RP-LC retention time is 1000 s.

`CN(C(=O)Cn1nc2n(c1=O)CCCCC2)c1ccccc1` registered an RP-LC retention time of 655 s. The same measure for `CC(C)(Oc1ccc(Cl)cc1)C(=O)NCC1(O)CCc2ccccc21` (stereo not given): 736 s.

The compound `Cc1nc(N2CCN(c3ncccn3)CC2)nc2c1C(=O)CCC2` came in with an RP-LC retention time of 886 s.

Compound `O=C(c1cc2c(s1)CCC(C(=O)N1CCN(c3ccccn3)CC1)C2)N1CCCC1` (stereo not given) came in with an RP-LC retention time of 600 s. Consider `Cc1ccc(Cl)cc1-n1ncc2c(NCCN3CCOCC3)ncnc21`, for which the RP-LC retention time came out at 629 s.

`Cc1ccc(-c2nc(CN3CCN(C(=O)NC4CCCC4)CC3)c(C)o2)cc1` displayed an RP-LC retention time of 677 s. `CCOc1ccc(NC(=O)N2CCCC(Cn3cnc4cccnc43)C2)cc1` (stereo not given) returned an RP-LC retention time of 640 s.
